Laboratory results: patent US9216170B2, “Combination therapy for proliferative disorders” (Hoffman-La Roche Inc., priority 2012, dated 2015)
Read-outs that look alike come from different tables or passages of the source.

Tests used:
[1] = test system: RKO cell xenografts; test: Assessment of survival / increase in life span (ILS) in RKO xenograft-bearing mice; type: in vivo; conditions: for % Increased Life Span: Table 3; for % ILS: Table 4; for 50% Treatment Days: median survival day
Procedure: (§1) Mice were implanted with RKO cell xenografts. The mice, cell line used, and implantation are described below.
(§2) RKO cells (American Type Culture Collection, Rockville, Md.) were maintained in DMEM media+10% (v/v) heat-inactivated FBS+1% (v/v) […] L-glutamine. Each mouse received 2×10^6 cells in a total volume of 0.2 ml. Cells were implanted subcutaneously in the right flank of each mouse using a 1 cc syringe and a 26 gauge needle.
(§3) RKO xenograft-containing mice were randomized into groups of 10 mice each according to tumor volume so that all groups had similar starting mean tumor volumes of about 145 mm^3.
(§4) 10 groups of mice were used.
(§5) Treatment duration was 2 weeks.
For survival assessment, results are plotted as the percentage survival against days after tumor implant (GraphPad Prism, version 5.03). An individual tumor volume of 1500 mm^3 was used as a surrogate for death. The % ILS was calculated as 100×[(median survival day of treated group−median survival day of control group)/median survival day of control group]. Median survival was determined utilizing Kaplan Meier survival analysis. Survival in treated groups was compared with the vehicle group by Log-rank (Mantel-Cox) Test (GraphPad Prism, version 4.3, La Jolla, Calif.). Differences between groups were considered significant when the probability value (p) was ≦0.05.

[2] = test system: RKO cell xenografts; test: Tumor growth inhibition in RKO xenograft-bearing mice; type: in vivo; conditions: for Mean Tumor Volume (mm^3) Start Study DAY: 14: baseline; for Full Regression / Partial Regression: number of animals
Procedure: as §1, §2, §3, §4, §5
Efficacy data was graphically represented as the mean tumor volume±standard error of the mean (SEM). Tumor volumes of treated groups were presented as percentages of tumor volumes of the control groups (% T/C), using the formula: 100×((T−T0)/(C−C0)), where T represented mean tumor volume of a treated group on a specific day during the experiment, T0 represented mean tumor volume of the same […] group on the first day of treatment; C represented mean tumor volume of a control group on the specific day during the experiment, and C0 represented mean tumor volume of the same […] group on the first day of treatment.
Tumor volume (in cubic millimeters) was calculated using the ellipsoid formula: (D×(d2))/2 where ‘D’ represents the large diameter of the tumor, and ‘d’ represents the small diameter.
Statistical analysis of treated groups was compared with the vehicle group with Mann-Whitney Rank Sum Test, comparisons between groups were analyzed by one-way ANOVA, and post-hoc Bonferroni t-test (GraphPad Prism, version 5.03). Differences between groups were considered to be significant when the probability value (p) was ≦0.05.

[3] = Compound II 200 mg/kg qweekly po
[4] = Compound III 100 mg/kg qweekly po

With `CCOc1cc(C(C)(C)C)ccc1C1=N[C@@](C)(c2ccc(Cl)cc2)[C@@](C)(c2ccc(Cl)cc2)N1C(=O)N1CCN(CCCS(C)(=O)=O)CC1` [Compound II] the Reason for mortality/morbidity (Compound II 100 mg/kg qd po) was “Technical”, the “% Increased Life Span” value ([1]; Compound II 100 mg/kg qd po) was 29% and the “% Increased Life Span” value [1, 3] was 0%. The “% ILS” value ([1]; Compound II 100 mg/kg) was 29%, the “% ILS” value ([1]; Compound II 200 mg/kg) was 0% and the “50% Treatment Days” value ([1]; Compound II 100 mg/kg) was 31 days. The “50% Treatment Days” value ([1]; Compound II 200 mg/kg) was 24 days, the “% Inhibition end of study Day: 28” value ([2]; Compound II 100 mg/kg qd po) was 64% and the “% T/C end of study Day: 28” value ([2]; Compound II 100 mg/kg qd po) was 36%. For the same molecule, the “Mean Tumor Volume (mm^3) End Study DAY: 29” value (from here on “Mean Tumor Volume … 29”) ([2]; Compound II 100 mg/kg qd po) was 726.30 mm^3, the “Mean Tumor Volume (mm^3) Start Study DAY: 14” value (“Mean Tumor Volume … 14” for short) ([2]; Compound II 100 mg/kg qd po) was 146.39 mm^3 and the “Full Regression” value ([2]; Compound II 100 mg/kg qd po) was 0. The “Partial Regression” value ([2]; Compound II 100 mg/kg qd po) was 0, the “% Inhibition end of study Day: 28” value [2, 3] was 18% and the “% T/C end of study Day: 28” value [2, 3] was 82%. For the same molecule, the “Mean Tumor Volume … 29” value [2, 3] was 1466.93 mm^3, the “Mean Tumor Volume … 14” value [2, 3] was 141.33 mm^3 and the “Full Regression” value [2, 3] was 0. The “Partial Regression” value [2, 3] was 0.
With `CCCS(=O)(=O)Nc1ccc(F)c(C(=O)c2c[nH]c3ncc(-c4ccc(Cl)cc4)cc23)c1F` [vemurafenib, Propane-1-sulfonic acid {3-[5-(4-chlorophenyl)-1H-pyrrolo[2,3-b]pyridine-3-carbonyl-2,4-difluoro-phenyl]-amide}, reference compound] the “# of animals ≧ 20% BWL” value (vemurafenib 50 mg/kg bid po) was 0, the “% Change in Body Weight at end of Study Day 28” value (“% Change in Body Weight at end” for short) (vemurafenib 50 mg/kg bid po) was 4.6% and the “Max % Weight Gain” value (vemurafenib 50 mg/kg bid po) was 7.5%. The “Max % Weight Loss” value (vemurafenib 50 mg/kg bid po) was 2.8%, the Mortality (vemurafenib 50 mg/kg bid po) was 0 and the “% Increased Life Span” value ([1]; vemurafenib 50 mg/kg bid po) was 0%. The “% ILS” value ([1]; vemurafenib 50 mg/kg) was 0%, the “50% Treatment Days” value ([1]; vemurafenib 50 mg/kg) was 24 days and the “% Inhibition end of study Day: 28” value ([2]; vemurafenib 50 mg/kg bid po) was 7%. The “% T/C end of study Day: 28” value ([2]; vemurafenib 50 mg/kg bid po) was 93%, the “Mean Tumor Volume … 29” value ([2]; vemurafenib 50 mg/kg bid po) was 1643.76 mm^3 and the “Mean Tumor Volume … 14” value ([2]; vemurafenib 50 mg/kg bid po) was 142.50 mm^3. For the same molecule, the “Full Regression” value ([2]; vemurafenib 50 mg/kg bid po) was 0 and the “Partial Regression” value ([2]; vemurafenib 50 mg/kg bid po) was 0.
In the case of `COc1cc(C(=O)O)ccc1NC(=O)[C@@H]1N[C@@H](CC(C)(C)C)[C@](C#N)(c2ccc(Cl)cc2F)[C@H]1c1cccc(Cl)c1F` [Compound III], the “# of animals ≧ 20% BWL” value (Compound III 80 mg/kg qdx5 po) is reported as 0, the “% Change in Body Weight at end” value (Compound III 80 mg/kg qdx5 po) is reported as 5.3% and the “Max % Weight Gain” value (Compound III 80 mg/kg qdx5 po) is reported as 7.4%. For the same molecule, the “Max % Weight Loss” value (Compound III 80 mg/kg qdx5 po) was 5.3%, the Mortality (Compound III 80 mg/kg qdx5 po) was 0 and the “# of animals ≧ 20% BWL” value [4] was 0. For the same molecule, the “% Change in Body Weight at end” value [4] was 6.6%, the “Max % Weight Gain” value [4] was 7.5% and the “Max % Weight Loss” value [4] was 4.7%. The Mortality [4] was 0, the “% Increased Life Span” value ([1]; Compound III 80 mg/kg qdx5 po) was 29% and the “% Increased Life Span” value [1, 4] was 29%. For the same molecule, the “% ILS” value ([1]; Compound III 80 mg/kg) was 29%, the “% ILS” value ([1]; Compound III 100 mg/kg) was 29% and the “50% Treatment Days” value ([1]; Compound III 80 mg/kg) was 31 days. The “50% Treatment Days” value ([1]; Compound III 100 mg/kg) was 31 days, the “% Inhibition end of study Day: 28” value ([2]; Compound III 80 mg/kg qdx5 po) was 65% and the “% T/C end of study Day: 28” value ([2]; Compound III 80 mg/kg qdx5 po) was 35%. For the same molecule, the “Mean Tumor Volume … 29” value ([2]; Compound III 80 mg/kg qdx5 po) was 705.24 mm^3, the “Mean Tumor Volume … 14” value ([2]; Compound III 80 mg/kg qdx5 po) was 143.00 mm^3 and the “Full Regression” value ([2]; Compound III 80 mg/kg qdx5 po) was 0. The “Partial Regression” value ([2]; Compound III 80 mg/kg qdx5 po) was 0, the “% Inhibition end of study Day: 28” value [2, 4] was 50% and the “% T/C end of study Day: 28” value [2, 4] was 50%. The “Mean Tumor Volume … 29” value [2, 4] was 952.64 mm^3, the “Mean Tumor Volume … 14” value [2, 4] was 147.78 mm^3 and the “Full Regression” value [2, 4] was 0. The “Partial Regression” value [2, 4] was 0.
